Experiments:
[1] = system: methicillin-susceptible S. aureus (SA 29213); assay: Metabolic labelling (D-Ala-N3 / DBCO-AF488) fluorescence under penicillin G treatment; format: cell-based
[2] = system: methicillin-resistant S. aureus (MRSA BAA39); assay: as above; format: cell-based
S. aureus 29213 = assay: Flow cytometry of metabolic labelling under penicillin G; format: cell-based; details: penicillin G 0-128 μg/mL, 3 h, vs untreated controls
MRSA BAA39 = assay: as above; format: cell-based, S. aureus; details: penicillin G up to 128 μg/mL, 3 h
SA 29213 [3] = assay: MILab-microarray assay; format: cell-based, S. aureus
MRSA BAA38 = assay: MILab-microarray assay; format: cell-based, S. aureus
SA 29213 [4] = assay: MILab-ELISA assay; format: cell-based, S. aureus; details: penicillin G 16 μg/mL
BAA39 [5] = assay: MILab-ELISA assay; format: cell-based, S. aureus; details: penicillin G 16 μg/mL
SA 29213 [6] = assay: MILab-LFA assay; format: cell-based, S. aureus
BAA39 [7] = assay: MILab-LFA assay; format: cell-based, S. aureus
[8] = system: drug-susceptible (SA 29213) S. aureus; assay: MILab-based MiChip (SERS) assay; format: cell-based
[9] = system: drug-resistant (BAA40) S. aureus; assay: MILab-based MiChip (SERS) assay; format: cell-based
[10] = penicillin G 16 μg/mL, 15 min to 4 hours
[11] = penicillin G 16 μg/mL, 1×10^4 CFU/mL

CC1(C)S[C@@H]2[C@H](NC(=O)Cc3ccccc3)C(=O)N2[C@H]1C(=O)[O-].[Na+] [penicillin G, Penicillin G sodium]
fluorescence intensity of metabolic labelling over incubation time ([1]; penicillin G 16 μg/mL, 0.5 to 5 h, susceptible SA 29213): kept constraint
metabolic labelling of single bacteria (confocal imaging) ([1]; penicillin G 16 μg/mL, susceptible strains): negligible labelling
fluorescence intensity of metabolic labelling at varying antibiotic concentration ([1]; penicillin G 2-128 μg/mL, susceptible bacteria): completely inhibit the metabolic labelling
fluorescence intensity of metabolic labelling over incubation time ([2]; penicillin G 16 μg/mL, 0.5 to 5 h, resistant MRSA BAA39): increased quickly with increasing incubation time
metabolic labelling of single bacteria (confocal imaging) ([2]; penicillin G 16 μg/mL, resistant strains): selective labelling
fluorescence intensity of metabolic labelling at varying antibiotic concentration ([2]; penicillin G 2-128 μg/mL, resistant bacteria): much stronger fluorescence intensity
labelling degree of individual bacteria (flow cytometry) (S. aureus 29213): considerably reduced labelling
labelling degree of individual bacteria (flow cytometry) (MRSA BAA39): maintained significant labelling
microarray fluorescence signal at increasing drug concentration (SA 29213 [3]; Penicillin G 0 to 32 μg/mL, 2 hours, vs untreated controls): considerably reduced signal
microarray fluorescence signal over drug treatment time (SA 29213 [3]; [10]): negligible signal even at 4 hours
microarray fluorescence signal at increasing drug concentration (MRSA BAA38; Penicillin G 0 to 32 μg/mL, 2 hours): maintained significant signal
microarray fluorescence signal over drug treatment time (MRSA BAA38; [10]): increased with increasing penicillin G treatment time
metabolism of bacteria (MILab-ELISA OD 650 nm) (SA 29213 [4]): completely inhibit the metabolism
metabolism of bacteria (MILab-ELISA OD 650 nm) (BAA39 [5]): high metabolic activity
MILab-LFA signal over drug treatment (incubation) time (SA 29213 [6]; penicillin G, up to 4 hours): no signal even after 4 hours
concentration that completely inhibits the bacteria (MILab-LFA test line) (SA 29213 [6]; susceptible bacteria SA 29213): 4 µg/mL
MILab-LFA signal over drug treatment (incubation) time (BAA39 [7]; penicillin G, up to 4 hours): showed signal after 30 min
concentration that completely inhibits the bacteria (MILab-LFA test line) (BAA39 [7]; resistant bacteria BAA39): 64 µg/mL
concentration at which weak Raman signals are generated ([8]; dose-dependence test, susceptible S. aureus): 8 µg/mL
Raman (SERS) signal over incubation time [8, 11]: negligible signals all the time
concentration at which weak Raman signals are generated ([9]; dose-dependence test, resistant S. aureus): 128 µg/mL
Raman (SERS) signal over incubation time [9, 11]: distinct Raman signal as short as 30 min

— patent US20250059581A1, “METHOD OF BACTERIAL IDENTIFICATION AND TESTING OF BACTERIUM RESISTANT TO ONE OR MORE ANTIBIOTICS” (Nanyang Technological University, priority 2021, published 2025)
